Results published in patent US20210163453A1, “DERIVATIVES OF PAPAVERINE THAT ARE EFFECTIVE HYPOXIC TUMOR RADIOSENSITIZERS” (Ohio State Innovation Foundation, priority 2018, published 2021).

Experiments:
[1] = tested on: mitochondrial complex 1; experiment: Seahorse OCR inhibition of PPV derivatives, normalized to PPV; assay type: cell-based
Description: FIGS. 7A-7D show OCR and cellular toxicity data. […]. Bars represent mean OCR and PDE10 inhibitory activities from at least 5 (OCR) or 3 (PDE) replicates. All experiments were repeated at least twice. […] Values are mean+−SEM.
Seahorse analysis of the OCR. Oxygen consumption rate (OCR) was measured using Seahorse XF96 Flux Analyzer (Agilent Technologies). The cells were seeded to attach overnight, wells were washed with pre-warmed XF Calibrant (Agilent Technologies) and the replaced with unbuffered Assay Medium (pH 7.4, 5 mM glucose, 1 mM L-glutamine). The plates were incubated at 37° C. in a CO2-free incubator for 2 hours prior to assay. For succinate rescue assay, cells were permeabilized using XF Plasma Membrane Permeabilizer Reagent (XF PMP, Agilent Technologies) according to the manufacturer's instructions. The OCR rate was measured in 1× Mitochondrial Assay Solution (MAS) (70 mM sucrose, 220 mM mannitol, 10 mM KH2PO4, 5 mM MgCl2, 2 mM Hepes, 0.6% (w/v) fatty acid-free BSA and 1 mM EGTA; pH 7.4). After baseline oxygenation was established, 1 μM rotenone or 10 μM PPV was injected at time A, followed by 5 mM succinate at time B. Error bars represent standard deviation. For the washout experiment, EO771 cells were seeded overnight, then treated with 10 μM PPV or 1 μM rotenone 3 hours prior to OCR measurement. Media was replaced 1 and 2 hours before measurement and OCR reported.
Because PPV's effect on mitochondrial function is independent of cAMP levels it was reasoned that there are two activities in PPV, one inhibiting complex 1 and one inhibiting PDE10A that may reside in different parts of the molecule. The structure activity relationship of PPV relative to two assays was assessed: inhibition of cellular OCR by Seahorse, and inhibition of PDE10A by purified enzyme activity in multiwell plate (PDE10A activity assay kit, BPS Bioscience). Because PPV can compete with rotenone as complex 1 inhibitors, it was reasoned that they may be binding the same site and therefore the structures would be similar relative to the mitochondrial binding target. […] Because the top was a planar structure similar to that of rotenone, and they compete with each other for the same binding pocket on complex 1 (FIG. 10) the lower portion of the molecule and how it may resemble rotenone were investigated in more detail. It was established that flexible linkage was preferred for mitochondrial activity and bulky adducts to the lower benzene ring may block it (FIG. 7C). […] These lead compounds were synthesized from commercial precursors and purified on silica gel column. Structures were confirmed by ^1H NMR and found to be >95% pure by HPLC.

[2] = tested on: model tumors grown in mice; experiment: Tumor growth delay with radiation, model tumors pooled; assay type: in vivo; settings: papaverine 30-60 minutes prior to radiation
Description: (§1) Tumor Growth kinetics. 2×10^6 EO771 or 5×10^6 A549 cells were injected s.c. into the flanks of 6-week old female immunocompetent C57/B6 (EO771) or immunocompromised nu/nu (A549) mice. Caliper measurements of opposing diameter were used to calculate the tumor volumes. Upon reaching […], the tumors were visualized by cone beam CT and treatment plans calculated using SARRP software. X-rays were delivered with a single beam delivering 5 Gy using the Small Animal Research Radiation Platform (SARRP, Xstrahl). Tumor volumes were measured until the post treatment volume increased 3-fold. Error bars represent standard deviation.
Both models of transplanted tumors that were used for the oxygenation experiments of papaverine's effect on radiation response in vivo were investigated. The murine breast cancer line EO771 that is syngeneic with the BL6 strain of mice was used and transplanted it orthotopically into the mammary fat pad of immune-competent mice. Also used was the human A549 lung adenocarcinoma line that was transplanted into the flank of immune-deficient mice. The breast cancers grew to approximately 150 mm^3 and were then randomized to receive either no treatment, a single dose of either 5 Gy, or papaverine at 2 mg/kg followed 30-40 minutes later by 5 Gy. […]

[3] = tested on: NDUFV1 KO NDI1 flank xenografts; experiment: Tumor growth delay of NDUFV1 KO NDI1 flank xenografts with XRT; assay type: in vivo, mice; settings: 2 mg/kg PPV 35 minutes prior to 8 Gy
Description: FIGS. 5A-5E show papaverine radiosensitizes through complex I inhibition. […] Values represent mean viable cells+−SD. […] Values are mean+−SD. […] P value was calculated with two-tailed two-sample t test. […] Curves represent mean tumor volumes+−SEM.
FIGS. 6A-6E show uncropped western blot membrane used for FIG. 5A showing NDUFV1 and PDH E1α levels (FIG. 6A) before probing for NDI1 (FIG. 6B). […] Values represent mean OCR from at least 5 replicates+−SD. […] Curves represent averaged colony counts+−SD. […] Values are mean tumor volumes+−SEM.
as §1, with “X-rays were delivered with a single beam delivering 5 Gy using the Small Animal Research Radiation Platform (SARRP, Xstrahl).” left out

[4] = tested on: A549 NDUFV1 KO NDI1 cells; assay type: cell-based, Human; settings: 10 μM papaverine or 1 μM rotenone

Row | Compound | activity in cellular OCR assay ([1]; Seahorse) | Inhibitory activity OCR % of PPV ([1]; Seahorse, OCR inhibition at 10 μM concentration, normalized to PPV) | complex 1 activity compared to PPV ([1]; compared to PPV) | increase of relative growth delay of a single dose of radiation [2] | increase of relative growth delay of a single dose of radiation ([2]; listed as papaverine) | radiation growth delay with drug [3] | response of mitochondria (OCR) to drug [4]
1 | COc1cc2ccnc(Cc3cccc4ccccc34)c2cc1OC [SMV-32] | approaching that of rotenone | 159.3 % of PPV | 160% | – | – | – | –
2 | COc1ccc(Cc2nccc3cc(OC)c(OC)cc23)cc1OC [PPV, papaverine] | – | – | – | 2-4 fold | 1.9-3.9 fold | resistant to PPV dependent increase in radiation growth delay | resistant
